Each structure is given as a SMILES string.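 These data come from cells grown in 96-well plates and exposed to compound for 48 hours at five concentrations. GI50 = concentration required for 50% inhibition of growth. TGI marks complete inhibition of growth.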

The record followed here is PubChem BioAssay (NCI).

Holding throughout (assay): NCI-60 cell line screen, 48 h
In test [1] the test system is A498 renal.
Test [2] concerns HCT-15 colon.
Test [3] deals with HT29 colon.
Test [4] concerns NCI/ADR-RES ovarian.
Test [5] relates to OVCAR-4 ovarian.
The subject of test [6] is RXF 393 renal.
In test [7] the test system is SF-268 CNS.
In test [8] the test system is SW-620 colon.
The subject of test [9] is UACC-62 melanoma.
Test [10] has as its system HL-60(TB) leukemia.

`C(=Nc1ccc2c(c1)Cc1ccccc1-2)c1ccccn1`: the TGI in test [1], in test [2], in test [3], in test [4], in [5] and in test [6] was over 100 µM in each case. In addition, the TGI in [7], in [8] and in [9] was over 100 µM in each case.
For the compound `Cc1ccc(CSC(N)=Nc2ccccc2)cc1C`, the TGI in test [1] came out at 33.2 µM; in test [2], 60.1 µM; in [10], 62.9 µM; in test [3], 40.1 µM; in [4] it was 52.8 µM; in [5] it was 36.5 µM. For the same compound, the TGI was 33.4 µM in test [6], 36.7 µM in test [7], over 100 µM in test [8] and 26.6 µM in test [9].
In the case of `COc1ccc(C2COc3c(ccc(O)c3C)C2)cc1OC` (centres undefined), the TGI in [1] was over 31.7 µM; in test [2] it was over 200 µM; in test [10] it was 140 µM; in [3] it was over 200 µM; in test [4], over 200 µM; in test [5], over 200 µM. Moreover, the TGI in test [6] was 131 µM; in [7] it was over 200 µM; in test [8], over 200 µM; in [9] it was over 200 µM.
Regarding `Cc1nc2ccc(S(=O)(=O)Nc3nccs3)cc2c(=O)n1NS(=O)(=O)c1nccs1`, the TGI in test [1], in test [2], in [10], in test [3], in [4] and in test [5] was over 100 µM each time. The TGI in test [6], in test [7], in [8] and in test [9] was over 100 µM each time.
Regarding `N[C@H](Cc1ccc2oc3cc(=O)c4ccccc4c-3nc2c1)C(=O)O`, the TGI in [1], in test [2], in test [10], in test [3], in [4] and in [5] was over 100 µM in each case. Moreover, the TGI is over 100 µM in test [6], over 100 µM in test [7], over 100 µM in [8] and 62 µM in test [9].
Turning to `CCCCC1C=Cn2c(=O)oc3c(OC(C)C)c(C)c(O)c1c32` (centres undefined), the TGI in test [1] turned out to be 1.1 µM; in [2], 12.4 µM; in test [10], 1.88 µM; in [3], 11.7 µM; in test [4], 5.88 µM; in [5], 2.37 µM. For the same compound, the results for the TGI in test [7], in test [8] and in test [9] were 13.2 µM, 11.9 µM and 2.97 µM, respectively.
Take `COC(=O)C1=C(OC)[C@H]2C#C/C=C\C#C[C@@H]3Nc4c(cc(O)c5c4C(=O)c4ccccc4C5=O)[C@]24O[C@@]34[C@H]1C`: the TGI in test [1] was under 0.01 µM; in [2] it was 0.0147 µM; in test [10] it was under 0.01 µM; in [3], under 0.0409 µM; in test [4] it was under 0.01 µM; in test [5], 0.2 µM. Besides, the figures for the TGI in [7], in [8] and in [9] were under 0.0341 µM, 0.0486 µM and under 0.01 µM, respectively.
As to `COc1ccc2c(c1)c(-c1nc(-c3c[nH]c4ncccc34)cs1)cn2CCCCN1CCCCC1`, the GI50 in [1] is 1.43 µM; in test [10], 1.72 µM; in test [7], 1.59 µM. The TGI in test [1] was 2.9 µM; in [10] it was 3.54 µM; in [7], 3.21 µM.
Consider `C[n+]1c2ccccc2c(NC(CCCN=C(N)N)C(=O)O)c2ccccc21` (centres undefined), for which the TGI in [1], in [2], in [10], in test [3], in test [5] and in test [6] was over 100 µM in each case. Further, the TGI in [7], in test [8] and in test [9] was over 100 µM throughout.
As for `CN(C)CCCNc1ccc2ncn3c4ccc(O)cc4c(=O)c1c23`, the TGI in [1] is 7.6 µM; in test [2] it was 16.8 µM; in test [10], 13.1 µM; in test [3], 12.9 µM; in [4], over 100 µM; in test [5], 8.01 µM. Further, the TGI came out at 2.91 µM in [6], 13.5 µM in [7], 16.4 µM in test [8] and 13.5 µM in test [9].
On to `COc1ccc(/C=N/n2cnc3c(c2=O)SC(=C(C#N)C#N)N3c2ccccc2)cc1`, for which the TGI in test [10], in test [3], in test [7], in test [8] and in test [9] was over 100 µM throughout.
Consider `C/C(=N\NC(=S)N1CCCC1)c1nc2ncccc2[nH]1`, for which the TGI is 27.1 µM in [1]; over 100 µM in test [2]; over 100 µM in test [10]; 20.2 µM in test [3]; over 100 µM in test [4]; 18.6 µM in test [5]. Besides, the TGI in test [7] is over 100 µM; in test [8], 64.4 µM; in test [9] it was 11.2 µM.
`CCOC(=O)c1sc2nc(SC)nc(Nc3ccc4c(c3)OCCO4)c2c1N`: the TGI was 27.4 µM in test [1]; over 100 µM in test [10]; 53.3 µM in test [3]; 44.7 µM in test [4]; 30.8 µM in test [5]; 16.9 µM in [6]. The TGI in test [7] was 20.4 µM; in [8] it was over 100 µM; in test [9] it was 23.5 µM.
`O=C1c2ccccc2OCC12OC21C=CC(Cl)=CC1` (centres undefined): the TGI in [1] was found to be 55 µM; in [2] it was 86.5 µM; in test [10], 37.3 µM; in [3], 36.5 µM; in test [4] it was 50.1 µM; in [5] it was 46.4 µM. Further, the TGI was 46.8 µM in test [6], over 100 µM in [7], over 100 µM in test [8] and over 100 µM in test [9].
As for `CCCO[C@@H]1[C@@H](OC(C)=O)[C@@H](OC(C)=O)C(C)(C)/C=C/[C@H](C)C(=O)[C@@]2(OC(C)=O)C[C@@](C)(OC(C)=O)[C@H](OC(C)=O)[C@@H]2[C@H]2OC(=O)CC[C@@]12OC(=O)c1ccccc1`, the TGI in [2], in test [10], in [3], in test [4], in test [5] and in [6] was over 25 µM each time. The TGI in [7], in test [8] and in [9] was over 25 µM each time.
Take `CCCC(=O)[O-].CCCC(=O)[O-].NCCN.NCCN.[Co+3].[O-][Cl+3]([O-])([O-])[O-]`: the TGI in test [1], in test [2], in test [3], in [5], in test [7] and in [8] was over 100 µM in each case. This compound came in with a TGI in test [9] of over 100 µM.
Regarding `CN(C)CCNC(=O)c1cccc2[nH]c(-c3ccccn3)nc12`, the TGI is over 94.8 µM in [1]; over 100 µM in [2]; over 78.7 µM in test [10]; over 66.7 µM in test [3]; over 87.7 µM in test [4]; over 78.6 µM in [5]. Also, the TGI was over 100 µM in [6], over 59.3 µM in [7], over 100 µM in [8] and 42.7 µM in [9].
As for `CCCn1cnc2c(SCc3ccc(Cl)cc3)nc(N)nc21`, the TGI was 49.1 µM in test [1]; over 100 µM in test [2]; 48.7 µM in test [10]; 43.5 µM in [3]; 73.2 µM in test [4]; over 100 µM in [5]. The TGI was over 100 µM in test [6], over 100 µM in test [7], over 100 µM in [8] and 52.8 µM in [9].
With `C=CCCC1(C)CCCNC1=S` (centres undefined), the TGI in test [1], in test [2], in test [10], in test [3], in [5] and in test [6] was over 100 µM each time. In addition, the TGI in test [8] and in [9] was over 100 µM in each case.
Take `O=C(N[C@@H](Cc1coc2ccccc12)B(O)O)[C@@H]1C[C@H]2CC[C@@H]1O2`: the GI50 in [1] is 0.702 µM; in test [2] it was 4.54 µM; in [10], 3.05 µM; in test [3] it was 3.77 µM; in test [4], 48 µM; in test [5] it was 7.36 µM. The GI50 was 1.86 µM in test [6], 9.62 µM in test [7], 3.3 µM in [8] and 5.29 µM in [9]. The TGI in test [1] was 5.73 µM; in test [2], 84.9 µM; in [10], over 100 µM; in test [3], over 100 µM; in test [4], over 100 µM; in test [5], over 100 µM. Moreover, the TGI in test [6] was 5.94 µM; in test [7] it was over 100 µM; in test [8], over 100 µM; in test [9] it was 55.2 µM.
